Reference: patent US20080131432A1, “Method of treating the chemotoxic effects of chemotherapeutic drugs on brain tissue” (University of Kentucky Research Foundation, priority 2005, published 2008)
“Also recorded” adds a separate entry of the source. Structures can show the parent of a compound that is named as a salt.

Tests used:
[1] = Localization of ADR in brain tissue (inverted fluorescence microscope); format: in vivo; conditions: mouse brain 3 hours after 20 mg/kg ADR i.p.; hydrochloride
Description: Eight-week-old male B6C3 mice (25-30 g) were kept under standard conditions. The mice were injected in a single intraperitoneal (i.p.) dose of 20 mg/kg adriamycin (Doxorubicin hydrochloride, […] Sicor Phamaceuticals, Inc., Irvine, Calif.), or the same volume of saline as control for 3 hours. […] Controls consisted of anti-TNF α antibody alone, or saline in the same total volume. All results were obtained from at least three separate experiments. Mice were euthanized by the i.p. injection of 65 mg/kg of nembutal (Sodium pentobarbital, Abbott Laboratories, North Chicago, Ill.), and were perfused via cardiac puncture initially with 0.1 M phosphate buffered saline (PBS), pH 7.4, and subsequent fixation with 4% paraformaldehyde. […] The sections were prepared for immunohistochemistry and detection of ADR. ADR in brain tissue slices was directly visualized using an inverted fluorescence microscope, FIG. 1 (excitation filter 550 nm, and barrier filter 590 nm). Photomicrographs were taken with an Olympus MagnaFire digital camera (Olympus, America, Melville, N.Y.).

[2] = system: p53, Bax, Bcl-xS, Bcl-xL, MnSOD in mitochondria; assay: Immunoblots of pro- and anti-apoptotic proteins in brain mitochondria; format: in vivo, mouse
Description: Perfused brain homogenates and isolated mitochondrial proteins were size-separated via 12.5% denaturing polyacrylamide gel electrophoresis (SDS-PAGE) and transferred to a nitrocellulose membrane. The membrane was blocked for 1 hour at room temperature in blocking solution consisting of 5% non-fat dried milk, 0.5% Tween-20 and Tris-buffered saline (TBST), pH 7.9. After blocking, the membrane was incubated overnight at 4° C. with primary antibodies against TNF α (Upstate, Lake Placid, N.Y.) and β-actin (Sigma, St. Louis, […].) in homogenate samples, or isolated mitochondria samples for p53 (Ab-11, Oncogene Research, Cambridge, Mass.), Bcl-xS/L (S-18), Bax (P-19) (Santa Cruz Biotechnology, Santa Cruz, Calif.), MnSOD (Upstate, Lake Placid, N.Y.), and glyceraldehyde-3-phosphate dehydrogenase (G-3-PDH, Trevigen, Gaithersburg, Md.) in blocking solution. The membrane was washed twice in TBST and incubated for 1 hour with horseradish peroxidase-conjugated secondary antibodies in blocking solution. After incubation with secondary antibodies, the membrane was washed twice with TBST and once in TBS (TBS without 0.5% Tween-20). Immunoreactivities of the protein bands were detected by enhanced chemiluminescence autoradiography (ECL, Amersham Phamacia Biotech, Arlington Heights, Ill.) as described by the manufacturer.
The final protein concentration was 20-40 mg/ml.

caspase 3 = assay: Caspase 3 activity in brain tissues; format: in vivo, mouse; conditions: 3 and 72 hours after 20 mg/kg ADR; hydrochloride
3-nitrotyrosine = assay: Nitrotyrosine-adducted proteins in isolated brain mitochondria (slot blot); format: in vivo, mouse; conditions: 3 hours after ADR 20 mg/kg, hydrochloride
Description: 3-Nitrotyrosine levels, a peroxynitrite reaction product marker, were determined as described previously (Lauderback et al. 2001). Briefly, 5 μg isolated mitochondrial proteins were incubated with Laemmli sample buffer (0.125 M Trisma base, pH 6.8, 4% SDS, 20% glycerol) for 20 minutes, and then 250 ng protein were blotted onto the nitrocellulose membrane using a slot-blot apparatus. The membrane was rinsed with TBST buffer, blocked by incubation in the presence of 5% BSA, followed by incubation with rabbit polyclonal anti-nitrotyrosine antibody as primary antibody for 1 h. The membranes were washed with TBST buffer and further incubated with goat anti-rabbit horseradish peroxidase-conjugated secondary antibody for 1 h. After incubation with secondary antibody, the membrane was washed twice with TBST and once in TBS (TBS without 0.05% Tween-20). Immunoreactivities of the protein bands were detected by ECL (Amersham Phamacia Biotech) as described by the manufacturer. Blots were scanned with Adobe Photoshop and quantified by the densitometry method (Bio-Rad).

cytochrome c = assay: Cytochrome c release from mitochondria to cytosol (Western blot); format: in vivo, mouse; conditions: brain tissue 3 hours after ADR
Description: Western blot analyses of cytochrome c and succinate dehydrogenase or β-actin were determined in mitochondrial or cytosolic fractions isolated from brain tissues 3 hours after mice were treated with ADR, and anti-TNF antibody immediately followed by ADR, and anti-TNF antibody, IgG, or saline as controls. Cytochrome c was decreased in mitochondria (*P<0.01) but increased cytosol after treatment with ADR or IgG followed by ADR. Succinate dehydrogenase or β-actin were used to normalize for protein loading. The Western blots shown a re a representative set of data of n=3 separate sets from individual animals. Quantification of all the data

[3] = system: cortical and hippocampal cells; assay: TUNEL-positive apoptotic cell death in cortical and hippocampal regions; format: in vivo, mouse; conditions: 3 and 72 hours after ADR, vs saline
Description: (A) Brain cryosection tissues were treated with biotinylated rTdT, followed by streptavidin peroxidase and diaminobenzidine-hydrogen peroxide, and counterstained with methyl-green. […] (For interpretation of the references to colour in this figure legend, the reader is referred to the web version of this article.)

[4] = system: mitochondrial respiration complex II; assay: Brain mitochondrial respiration, complex II (succinate); format: in vivo, mouse; conditions: succinate as substrate, after ADR
Description: Mice were perfused via cardiac puncture with cold mitochondrial isolation buffer, the brain promptly removed, the cerebellum dissected away, and mitochondria immediately isolated from the freshly brain by a modification of the method described by Mattiazzi et al. (2002). Brain mitochondria were isolated in cold mitochondrial isolation buffer, containing 0.07 M sucrose, 0.22 M mannitol, 20 mM HEPES, 1 mM EGTA, and 1% bovine serum albumin, pH 7.2. Tissues were homogenized with a Dounce homogenizer and centrifuged at 1,500×g at 4° C. for 5 minutes before transferring the supernatant. The pellets were resuspended and centrifuged at 1,500×g at 4° C. for 5 minutes. […] Protein concentration of isolated mitochondria was determined by the Bradford assay (Bradford, 1976). […]
Mitochondrial respiration was determined using Clark-type polarographic oxygen sensors (Hansatech Instruments, Kings Lynn, Norfolk, UK) to measure the rate of oxygen consumption. […] Oxygen consumption was measured with either pyruvate (10 mM) plus malate (10 mM) or succinate (10 mM) as substrates for respiration from complex I or complex II in the absence of exogenous ADP (state II) and after addition of 300 mM ADP (state III respiration). […] Respiration control ratios (RCR) were calculated as the ratios of state III and state II respiration as described previously by Estabrook (1967). […]

MnSOD, CuZnSOD = assay: MnSOD and CuZnSOD protein levels in brain homogenates (western blot); format: in vivo, mouse; conditions: wild-type and iNOSKO mice, 3 hours after ADR 20 mg/kg
Description: Brains were perfused, the cerebellum removed and the brain dissected from mice treated with i.p. ADR 20 mg/kg, or saline as a control, for 3 hours. Brains were placed in ice-cold 50 mM PBS, pH 7.4, containing the protease inhibitors 4 μg leupeptin, 4 μg pepstatin, and 5 μg aprotinin, washed and chopped in ice-cold PBS containing protease inhibitors. Tissues were homogenized with a Potter-Elvehjem glass homogenizer with a loose fitting Teflon® pestle, and protein concentration was determined by the Bradford assay (Bradford, 1976). Brain homogenate proteins were size-separated using denaturing sodium dodecyl sulfate-polyacrylamide gel electrophoresis (SDS-PAGE). Proteins (50 μg) were electrophoresed on 12.5% SDS-PAGE and transferred to a nitrocellulose membrane. The membrane was blocked for 1 hour at room temperature in blocking solution consisting of 5% non-fat dried milk, Tris-buffered saline (TBST; 10 mM Tris-HC, 150 mM NaCl, 0.05% Tween 20), pH 7.9. After blocking, the membrane was incubated overnight at 4° C. with primary antibodies against MnSOD (Upstate, Lake Placid, N.Y., USA), Cu/ZnSOD (Calbiochem, San Diego, Calif., USA) and β-actin (Sigma) in blocking solution. […] Immunoreactivities of the protein bands were detected by enhanced chemiluminescence autoradiography (ECL; Amersham Phamacia Biotech, Arlington Heights, Ill., USA) as described by the manufacturer.

[5] = system: mitochondrial respiration complex I; assay: Brain mitochondrial respiration, complex I (pyruvate + malate), respiration control ratio; conditions: 3 hours after treatment, hydrochloride
Description: Mice were perfused via cardiac puncture with cold mitochondrial isolation buffer, the brain promptly removed, the cerebellum dissected away, and mitochondria immediately isolated from the freshly brain by a modification of the method described by Mattiazzi et al. (2002). Brain mitochondria were isolated in cold mitochondrial isolation buffer, containing 0.07 M sucrose, 0.22 M mannitol, 20 mM HEPES, 1 mM EGTA, and 1% bovine serum albumin, pH 7.2. Tissues were homogenized with a Dounce homogenizer and centrifuged at 1,500×g at 4° C. for 5 minutes before transferring the supernatant. The pellets were resuspended and centrifuged at 1,500×g at 4° C. for 5 minutes. The supernatants were combined and centrifuged at 13,500×g at 4° C. for 10 minutes. Mitochondrial pellets were washed twice and finally resuspended in 50-100 μL cold isolation buffer. Protein concentration of isolated mitochondria was determined by the Bradford assay (Bradford, 1976). The final protein concentration was 20-40 mg/ml.
Mitochondrial respiration was determined using Clark-type polarographic oxygen sensors (Hansatech Instruments, Kings Lynn, Norfolk, UK) to measure the rate of oxygen consumption. Freshly isolated mitochondria were suspended in respiration buffer at a concentration of 0.5 mg mitochondrial protein per mL of respiration buffer, which consists of 0.25 M sucrose, 50 mM HEPES, 1 mM EGTA, 10 mM KH2PO4, and 2 mM MgCl2, pH 7.4. Oxygen consumption was measured with either pyruvate (10 mM) plus malate (10 mM) or succinate (10 mM) as substrates for respiration from complex I or complex II in the absence of exogenous ADP (state II) and after addition of 300 mM ADP (state III respiration). Rotenone (5 μM) was added to the reaction to inhibit respiration from complex I when succinate was used as the substrate. […] FCCP (1 μM), an uncoupling agent, was added as a control of respiration. Respiration control ratios (RCR) were calculated as the ratios of state III and state II respiration as described previously by Estabrook (1967). The unit for state II rate and state III rate is nmole/min/mg protein.
Mice were perfused via cardiac puncture with cold mitochondrial isolation buffer, the brain promptly removed, the cerebellum dissected away, and mitochondria immediately isolated from the freshly brain by a modification of the method described by Mattiazzi et al. (2002). Brain mitochondria were isolated in cold mitochondrial isolation buffer, containing 0.07 M sucrose, 0.22 M mannitol, 20 mM HEPES, 1 mM EGTA, and 1% bovine serum albumin, pH 7.2. Tissues were homogenized with a Dounce homogenizer and centrifuged at 1,500×g at 4° C. for 3 minutes before transferring the supernatant fluid. The pellets were resuspended and centrifuged at 1,500×g at 4° C. for 3 minutes. The supernatant fluids were combined and centrifuged at 1,500×g at 4° C. for 3 minutes. These supernatant fluids were then centrifuged at 13,500×g at 4° C. for 10 minutes. Mitochondrial pellets were washed twice and finally resuspended in 50-100 μL cold isolation buffer. Protein concentration of isolated mitochondria was determined by the Bradford assay (Bradford, 1976).
Mitochondrial respiration was determined using Clark-type polarographic oxygen sensors (Hansatech Instruments, UK) to measure the rate of oxygen consumption. Freshly-isolated mitochondria were suspended in respiration buffer at a concentration of 0.5 mg mitochondrial protein/mL respiration buffer, which consisted of 0.25 M sucrose, 50 mM HEPES, 1 mM EGTA, 10 mM KH2PO4, 2 mM MgCl2 and 0.2% BSA, pH 7.4. Oxygen consumption was measured with either pyruvate (10 mM) or pyruvate plus malate (10 mM) as substrates for respiration from complex I, in the absence of exogenous ADP (state II), and after addition of 300 mM ADP (state III respiration). […] FCCP (1 μM), an uncoupling agent, was added as a control respiration. Respiration control ratios (RCR) were calculated as the ratios of state III and state II respiration.

[6] = after ADR 20 mg/kg, 3-72 hours, vs saline, hydrochloride
[7] = after ADR, any time point studied

- Tyrosine-nitrated proteins in brain mitochondria (3-nitrotyrosine; iNOSKO mice): no difference with controls
- Cytochrome c in cytosolic fraction (cytochrome c): increased
- Cytochrome c in mitochondrial fraction (cytochrome c): decreased
- Brain mitochondrial respiration complex II [4]: no effect
- CuZnSOD protein level in brain homogenates (MnSOD, CuZnSOD): no change
- MnSOD protein level in brain homogenates (MnSOD, CuZnSOD): no change
Compound: COc1cccc2c1C(=O)c1c(O)c3c(c(O)c1C2=O)C[C@@](O)(C(=O)CO)C[C@@H]3O[C@H]1C[C@H](N)[C@H](O)[C@H](C)O1 [ADR, Doxorubicin hydrochloride]
- ADR orange-red fluorescence in areas outside the blood brain barrier (choroid plexus) [1]: observed in several areas outside the blood brain barrier, including the choroid plexus; also recorded: apparent in the choroid plexus
- ADR orange-red fluorescence in cortex and hippocampus [1]: not observed in cortex and hippocampus; also recorded: not detected
- Bax level in brain mitochondria [2, 6]: increased with a similar kinetics to that of p53; also recorded: increased at 3 and 6 hours; also recorded: increase in protein density
- p53 level in brain mitochondria [2, 6]: increased in mitochondria early times after ADR treatment (3, 6, 24 hours), then declined at 48, and 72 hours; also recorded: significantly increased at 3, 6, and 24 hours; also recorded: increase in protein density
- Bcl-xS level in brain mitochondria [2, 7]: no significant changes
- MnSOD level in brain mitochondria [2, 7]: no significant changes
- Caspase 3 activity in brain tissues (caspase 3): significantly increased; also recorded: increased at 72 hours compared with 3 hours
- Tyrosine-nitrated proteins in brain mitochondria (3-nitrotyrosine; wild-type mice): significantly increased protein nitration
- TUNEL-positive apoptotic cells in cortex and hippocampus [3]: increased number of apoptotic cells
- Brain mitochondrial respiration complex I (RCR) ([5]; iNOSKO mice): no effect; also recorded: not in iNOSKO mice
- Brain mitochondrial respiration complex I (RCR, state III / state II) ([5]; wild-type mice, vs saline control): significantly decreased; also recorded: decline
